Read-outs that look alike come from different tables or passages of the source.
What was measured:
[1] = Circular dichroism (CD) spectroscopy, α-helix content; assay type: physicochemical; settings: based on [θ]222 and proposed formula, 50 mM phosphate buffer pH 7.4
Method: FIG. 11. CD spectra of the MVP-1 and DP178. The spectra were recorded with 10 uM of DP178 and 2.5 uM of MVP-1 in a phosphate buffer (50 mM, pH 7.4) at 23° C.
One application of the scaffolds is to induce special conformations of peptides. The circular dichroism (CD) spectra of the synthetic multivalent gp41 peptide (MVP-1) and peptide DP178 were recorded and compared (FIG. 11). It was shown that the multivalent assembling has a significant impact on the peptide conformation, leading to a great increase of the α-helical content for the peptide. […]
Similarly, we measured the circular dichroism (CD) spectra of the cholic acid-based multivalent peptides (36a and 37b). […]
The UV absorbance was run on Beckman DU 640 spectrophotometer. CD's spectrums were measured on Jasco-810 (CD-ORD) spectropolarimeter using quartz cuvette of 1 mm path length. […]
The samples of tetravalent peptide 26, trivalent peptides 36a and 37b, template 3α, 7α, 12α-tri-(6-Amino-3-thia-hexy-oxyl)-24-hydroxyl-5β-cholane 32, and the single peptide DP178 were prepared in a concentration ranging from 2 to 18 μM in 50 mM phosphate buffer (pH 7.4). The exact concentration of each sample was detected by UV spectrometer just prior to CD measurement. […]

[2] = Native gel filtration (aggregation); assay type: physicochemical; settings: PBS, pH 7.2, 0.5 mM
Excerpt: Accordingly, the tetravalent gp41 peptides 25 and 26, each of which contains 4 strands of the 36-mer HIV-1 gp41 peptide DP178 (T20) were synthesized (FIG. 7). […] In order to ligate the peptide to the maleimide cluster, a cysteine residue was introduced at the C-terminus of the peptide during solid phase peptide synthesis.

[3] = aqueous buffer pH 7.0; cited from earlier work
[4] = system: HIV-1; settings: laboratory-adapted strains and primary isolates / different strains of HIV, cited from earlier work

For enfuvirtide, the “content of α-helix” value [1] is given as 18%, the “aggregation under native gel filtration” value [2] is given as “form aggregates” and the “concentration at which monomer/tetramer equilibrium and other aggregation patterns occur” value [3] is given as “above 20 μM”. For the same substance, the “concentration at which peptide is monomeric” value [3] was “below 10 μM”, the “inhibition of HIV membrane fusion” value [4] was “potent and broadly inhibitory activities” and the “inhibition of HIV membrane fusion” value ([4]; listed as T20) was “potently inhibit”.

Source: patent publication US7524821B2, “Scaffolded maleimide clusters for multivalent peptide assembly” (priority 2002, dated 2009)
